Assay results: PubChem BioAssay AID248 (DTP/NCI, 2004)
Several values for one entry are separate records, joined by “and”; a condition that tells them apart may be missing. Equal entries are not always repeated. Toxic doses and inconclusive results are not listed.

Test system: L1210 leukemia ip in BDF1 mice, survival T/C
Experiment: NCI In Vivo Anticancer Drug Screen. Data for tumor model L1210 Leukemia (intraperitoneal) in B6D2F1 (BDF1) mice
Settings: endpoint: mean survival time, higher = longer survival
Outline: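 Transplantable tumor model; survival measured in treated vs vehicle control mice. Value = treated/control.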

[1] = dose: 12.5 mg/kg/injection, schedule: Q01DX Z (ip), vehicle: carboxymethylcellulose (CMC)
[2] = dose: 25.0 mg/kg/injection, schedule: Q01DX Z (ip), vehicle: carboxymethylcellulose (CMC)
[3] = dose: 50.0 mg/kg/injection, schedule: Q01DX Z (ip), vehicle: carboxymethylcellulose (CMC)
[4] = dose: 100.0 mg/kg/injection, schedule: Q01DX009 (ip), vehicle: saline
[5] = dose: 50.0 mg/kg/injection, schedule: Q01DX009 (ip), vehicle: saline with Tween-80
[6] = dose: 100.0 mg/kg/injection, schedule: Q04DX003 (ip), vehicle: Klucel (hydroxypropylcellulose) (HPC)
[7] = dose: 100.0 mg/kg/injection, schedule: Q01DX001 (ip), vehicle: saline
[8] = dose: 100.0 mg/kg/injection, schedule: Q01DX001 (ip), vehicle: carboxymethylcellulose (CMC)
[9] = dose: 200.0 mg/kg/injection, schedule: Q01DX001 (ip), vehicle: carboxymethylcellulose (CMC)
[10] = dose: 200.0 mg/kg/injection, schedule: Q04DX003 (ip), vehicle: saline
[11] = dose: 100.0 mg/kg/injection, schedule: Q01DX009 (ip), vehicle: saline with Tween-80
[12] = dose: 200.0 mg/kg/injection, schedule: Q01DX009 (ip), vehicle: saline with Tween-80

CCN(CC)C(=O)c1cc(NC(=O)Nc2ccc(C3=NCCN3)cc2)cc(NC(=O)Nc2ccc(C3=NCCN3)cc2)c1
T/C (dose: 62.0 mg/kg/injection, schedule: Q01DX Z (ip), vehicle: carboxymethylcellulose (CMC)): 91 % of control | T/C (dose: 125.0 mg/kg/injection, schedule: Q01DX Z (ip), vehicle: carboxymethylcellulose (CMC)): 97 % of control | T/C (dose: 250.0 mg/kg/injection, schedule: Q01DX Z (ip), vehicle: carboxymethylcellulose (CMC)): 97 % of control | T/C (dose: 500.0 mg/kg/injection, schedule: Q01DX Z (ip), vehicle: carboxymethylcellulose (CMC)): 88 % of control

CCN(CC)CCOC(=O)C(c1ccccc1)C1C=CCCC1 (configuration not stated)
T/C (dose: 75.0 mg/kg/injection, schedule: Q01DX001 (ip), vehicle: saline): 102 % of control | T/C (dose: 150.0 mg/kg/injection, schedule: Q01DX001 (ip), vehicle: saline): 92 % of control

CN(C)Nc1ncnc2nc[nH]c12
T/C [1]: 98 % of control | T/C [2]: 104 % of control | T/C [3]: 106 % of control and 115 % of control | T/C (dose: 75.0 mg/kg/injection, schedule: Q01DX001 (ip), vehicle: carboxymethylcellulose (CMC)): 102 % of control | T/C (dose: 100.0 mg/kg/injection, schedule: Q01DX Z (ip), vehicle: carboxymethylcellulose (CMC)): 114 % of control and 118 % of control | T/C (dose: 150.0 mg/kg/injection, schedule: Q01DX001 (ip), vehicle: carboxymethylcellulose (CMC)): 102 % of control | T/C (dose: 300.0 mg/kg/injection, schedule: Q01DX001 (ip), vehicle: carboxymethylcellulose (CMC)): 110 % of control

NC(=O)Nc1n[nH]c(-c2ccccc2)n1
T/C [4]: 90 % of control

O=C(O/N=C1\C2CCC(C2)C1Cl)c1ccc([N+](=O)[O-])cc1 (configuration not stated)
T/C (dose: 25.0 mg/kg/injection, schedule: Q01DX009 (ip), vehicle: saline with Tween-80): 94 % of control | T/C [5]: 88 % of control | T/C [6]: 102 % of control

CN(C)P1(=O)NCCCO1 (configuration not stated)
T/C [7]: 100 % of control | T/C (dose: 200.0 mg/kg/injection, schedule: Q01DX001 (ip), vehicle: saline): 110 % of control | T/C (dose: 400.0 mg/kg/injection, schedule: Q01DX001 (ip), vehicle: saline): 109 % of control

CCN=C(N)CSS(=O)(=O)O
T/C (dose: 25.0 mg/kg/injection, schedule: Q04DX002 (ip), vehicle: Klucel (hydroxypropylcellulose) (HPC)): 100 % of control | T/C (dose: 50.0 mg/kg/injection, schedule: Q04DX002 (ip), vehicle: Klucel (hydroxypropylcellulose) (HPC)): 97 % of control | T/C (dose: 100.0 mg/kg/injection, schedule: Q04DX002 (ip), vehicle: Klucel (hydroxypropylcellulose) (HPC)): 95 % of control and 110 % of control

CN(C)CCC(c1ccccc1)(c1ccccc1)c1ccccc1
T/C (dose: 50.0 mg/kg/injection, schedule: Q01DX001 (ip), vehicle: carboxymethylcellulose (CMC)): 92 % of control | T/C [8]: 92 % of control | T/C [9]: 94 % of control

CC(C)=CCCC(C)C/C=N\N=C(N)N (configuration not stated)
T/C (dose: 15.0 mg/kg/injection, schedule: Q01DX Z (ip), vehicle: carboxymethylcellulose (CMC)): 95 % of control | T/C (dose: 30.0 mg/kg/injection, schedule: Q01DX Z (ip), vehicle: carboxymethylcellulose (CMC)): 98 % of control | T/C (dose: 30.0 mg/kg/injection, schedule: Q01DX Z (oral), vehicle: carboxymethylcellulose (CMC)): 118 % of control | T/C (dose: 60.0 mg/kg/injection, schedule: Q01DX Z (ip), vehicle: carboxymethylcellulose (CMC)): 97 % of control | T/C (dose: 60.0 mg/kg/injection, schedule: Q01DX Z (oral), vehicle: carboxymethylcellulose (CMC)): 101 % of control | T/C (dose: 120.0 mg/kg/injection, schedule: Q01DX Z (oral), vehicle: carboxymethylcellulose (CMC)): 97 % of control | T/C (dose: 240.0 mg/kg/injection, schedule: Q01DX Z (oral), vehicle: carboxymethylcellulose (CMC)): 101 % of control

CCCCCCCCCCCCCCCCCCS(=O)(=O)CCCl
T/C (dose: 25.0 mg/kg/injection, schedule: Q04DX003 (ip), vehicle: Klucel (hydroxypropylcellulose) (HPC)): 107 % of control | T/C (dose: 50.0 mg/kg/injection, schedule: Q04DX003 (ip), vehicle: Klucel (hydroxypropylcellulose) (HPC)): 100 % of control | T/C [6]: 96 % of control | T/C (dose: 200.0 mg/kg/injection, schedule: Q04DX003 (ip), vehicle: Klucel (hydroxypropylcellulose) (HPC)): 93 % of control | T/C (dose: 400.0 mg/kg/injection, schedule: Q04DX003 (ip), vehicle: Klucel (hydroxypropylcellulose) (HPC)): 91 % of control

CC(=O)Nc1c(Cl)cc2c(c1Cl)Cc1cc(C#N)ccc1-2
T/C [8]: 102 % of control | T/C [9]: 102 % of control | T/C (dose: 400.0 mg/kg/injection, schedule: Q01DX001 (ip), vehicle: carboxymethylcellulose (CMC)): 98 % of control

Cc1cc(C)c([S-])c(C)c1.[Cu+]
T/C (dose: 18.8 mg/kg/injection, schedule: Q01DX001 (ip), vehicle: saline): 98 % of control

CC(CO)NC(=O)c1ccc(N)cc1 (configuration not stated)
T/C (dose: 100.0 mg/kg/injection, schedule: Q04DX003 (ip), vehicle: saline): 107 % of control | T/C [10]: 100 % of control | T/C (dose: 400.0 mg/kg/injection, schedule: Q04DX003 (ip), vehicle: saline): 102 % of control

c1nnc(NCNc2nncs2)s1
T/C (dose: 2.6 mg/kg/injection, schedule: Q01DX009 (ip), vehicle: Klucel (hydroxypropylcellulose) (HPC)): 115 % of control | T/C (dose: 6.0 mg/kg/injection, schedule: Q01DX009 (ip), vehicle: Klucel (hydroxypropylcellulose) (HPC)): 124 % of control | T/C (dose: 7.5 mg/kg/injection, schedule: Q01DX009 (ip), vehicle: saline): 122 % of control | T/C (dose: 12.0 mg/kg/injection, schedule: Q04DX003 (ip), vehicle: Klucel (hydroxypropylcellulose) (HPC)): 121 % of control | T/C (dose: 15.0 mg/kg/injection, schedule: Q01DX009 (ip), vehicle: saline): 120 % of control | T/C (dose: 18.0 mg/kg/injection, schedule: Q04DX003 (ip), vehicle: Klucel (hydroxypropylcellulose) (HPC)): 122 % of control | T/C (dose: 19.0 mg/kg/injection, schedule: Q01DX009 (ip), vehicle: saline): 154 % of control | T/C (dose: 20.0 mg/kg/injection, schedule: Q01DX009 (ip), vehicle: Klucel (hydroxypropylcellulose) (HPC)): 109 % of control | T/C (dose: 30.0 mg/kg/injection, schedule: Q01DX009 (ip), vehicle: Klucel (hydroxypropylcellulose) (HPC)): 95 % of control | T/C (dose: 30.0 mg/kg/injection, schedule: Q01DX009 (ip), vehicle: saline): 166 % of control | T/C (dose: 45.0 mg/kg/injection, schedule: Q01DX009 (ip), vehicle: Klucel (hydroxypropylcellulose) (HPC)): 87 % of control | T/C (dose: 45.0 mg/kg/injection, schedule: Q01DX009 (ip), vehicle: saline): 114 % of control | T/C (dose: 50.0 mg/kg/injection, schedule: Q01DX001 (ip), vehicle: saline): 110 % of control | T/C (dose: 50.0 mg/kg/injection, schedule: Q04DX003 (ip), vehicle: saline): 111 % of control | T/C (dose: 60.0 mg/kg/injection, schedule: Q01DX009 (ip), vehicle: saline): 115 % of control | T/C [7]: 117 % of control | T/C [10]: 167 % of control and 168 % of control | T/C (dose: 300.0 mg/kg/injection, schedule: Q04DX003 (ip), vehicle: Klucel (hydroxypropylcellulose) (HPC)): 106 % of control | T/C (dose: 300.0 mg/kg/injection, schedule: Q04DX003 (ip), vehicle: saline): 113 % of control

O=S(=O)(O)c1cccc(S(=O)(=O)O)c1
T/C [4]: 105 % of control | T/C (dose: 200.0 mg/kg/injection, schedule: Q01DX009 (ip), vehicle: saline): 103 % of control | T/C (dose: 400.0 mg/kg/injection, schedule: Q01DX009 (ip), vehicle: saline): 97 % of control

CN(N=O)C(=O)NCCc1ccc(OC(=O)N(C)N=O)cc1
T/C (dose: 0.78 mg/kg/injection, schedule: Q01DX Z (ip), vehicle: carboxymethylcellulose (CMC)): 98 % of control | T/C (dose: 1.56 mg/kg/injection, schedule: Q01DX Z (ip), vehicle: carboxymethylcellulose (CMC)): 110 % of control | T/C (dose: 3.12 mg/kg/injection, schedule: Q01DX Z (ip), vehicle: carboxymethylcellulose (CMC)): 95 % of control | T/C (dose: 6.25 mg/kg/injection, schedule: Q01DX Z (ip), vehicle: carboxymethylcellulose (CMC)): 113 % of control | T/C [1]: 118 % of control | T/C [2]: 124 % of control | T/C [3]: 91 % of control

CCOC(=O)CCCCSCCCCC(=O)OCC
T/C [11]: 91 % of control | T/C [12]: 101 % of control | T/C (dose: 400.0 mg/kg/injection, schedule: Q01DX009 (ip), vehicle: saline with Tween-80): 102 % of control

CC1CC(=O)C(CCC#N)=C(Cl)C1 (configuration not stated)
T/C [5]: 100 % of control | T/C [11]: 96 % of control | T/C [12]: 96 % of control

CCC1C(CC)N1S(=O)(=O)c1ccccc1 (configuration not stated)
T/C (dose: 100.0 mg/kg/injection, schedule: Q04DX002 (ip), vehicle: saline with Tween-80): 100 % of control | T/C (dose: 200.0 mg/kg/injection, schedule: Q04DX002 (ip), vehicle: saline with Tween-80): 103 % of control
